{
  "source": "patent US7176237B2",
  "about": "“Tricyclic-bis-enone derivatives and methods of use thereof” (The Trustees of Dartmouth College, priority 2002, dated 2007)",
  "key": {"[1]": {"tested_on": "NO production induced by IFN-γ in mouse macrophages", "assay": "iNOS assay: inhibition of NO production induced by IFN-γ in mouse macrophages", "assay_type": "cell-based", "settings": "for pIC50: Macrophage"}, "[2]": {"tested_on": "NRP-152 prostate epithelial cells", "assay": "Inhibition of proliferation of NRP-152 prostate epithelial cells", "assay_type": "cell-based", "settings": "Rattus norvegicus, Epithelial cell, read-out: IC50 level, inhibition of proliferation"}, "[3]": {"tested_on": "iNOS mRNA in RAW 264.7 cells", "assay": "Suppression of iNOS mRNA formation in RAW 264.7 cells", "assay_type": "cell-based", "experimental": "(§1) Standard methodology already in place in the inventors laboratory (Suh et al., 1998, 1999, incorporated herein by reference) can be used to evaluate the biological activity of newly synthesized TBEs using suppression of de novo synthesis of iNOS and COX-2 as endpoints. Briefly, primary mouse macrophages or RAW264.7 cells can be cultured under standard conditions and stimulated with either interferon-γ or lipopolysaccharide (LPS). TBEs are added to cell cultures at the same time as inducers. Nitric oxide production in cell culture supernatants can be measured as nitrite accumulation by the Griess reaction. Analysis of levels of iNOS protein in lysates of primary macrophages or RAW cells can be done by Western blot analysis, while levels of iNOS mRNA can be done by routine Northern blot analysis. Prostaglandin E2 production is measured with a commercially available ELISA assay kit, and […] protein and mRNA levels can measured by routine Western and Northern blot analysis, respectively. All these methods are well known in the art."}, "[4]": {"tested_on": "COX-2 mRNA in RAW 264.7 cells", "assay": "Suppression of COX-2 mRNA formation in RAW 264.7 cells", "assay_type": "cell-based", "experimental": "as §1"}, "[5]": {"tested_on": "MCF-7 breast cancer cells (ER-positive)", "assay": "Inhibition of estrogen-stimulated growth of MCF-7 breast cancer cells", "assay_type": "cell-based, human"}, "[6]": {"tested_on": "activation of macrophages in CD-1 mice", "assay_type": "in vivo"}, "[7]": {"tested_on": "several cancer cell lines", "assay": "Inhibitory activity against several cancer cell lines (data not shown)", "assay_type": "cell-based"}, "[8]": {"settings": "blocking of induction of iNOS by IFN-γ, NO production in mouse macrophages, read-out: Activity IC50"}},
  "note": "pIC50: −log10 of the molar value. Read-outs that look alike come from different tables or passages of the source.",
  "data": [
    {"smiles": "CC1(C)C(=O)C(C#N)=C[C@]2(C)C3=CCC[C@@H](O)[C@]3(C)CC[C@@H]12", "note": "(racemic) [(±)-TBE-1]", "values": [
      {"measurement": "pIC50", "setting": "[1]; [8]", "value": 6.51}
    ]},
    {"smiles": "CC(=O)O[C@@H]1CCC=C2[C@@]3(C)C=C(C#N)C(=O)C(C)(C)[C@@H]3CC[C@]21C", "note": "(racemic) [(±)-TBE-2]", "values": [
      {"measurement": "pIC50", "setting": "[1]; [8]", "value": 6.32}
    ]},
    {"smiles": "CC(=O)O[C@@H]1CC(=O)C=C2[C@@]3(C)C=C(C#N)C(=O)C(C)(C)[C@@H]3CC[C@]21C", "note": "(racemic) [(±)-TBE-3]", "values": [
      {"measurement": "pIC50", "setting": "[2]", "value": "~7.00"},
      {"measurement": "potency, times less than CDDO (iNOS mRNA)", "setting": "[3]; RAW cells", "value": "about 10 times"},
      {"measurement": "formation of iNOS mRNA", "setting": "[3]; at 1 μM in RAW cells", "value": "suppresses"},
      {"measurement": "pIC50", "setting": "[1]; [8]", "value": 7.28},
      {"measurement": "potency, times less than CDDO (COX-2 mRNA)", "setting": "[4]; RAW cells", "value": "about 10 times"},
      {"measurement": "formation of COX-2 mRNA", "setting": "[4]; at 1 μM in RAW cells", "value": "suppresses"}
    ]},
    {"smiles": "CC1(C)C(=O)C(C#N)=C[C@]2(C)C3=CC(=O)C[C@@H](O)[C@]3(C)CC[C@@H]12", "note": "(racemic) [(±)-TBE-4]", "values": [
      {"measurement": "pIC50", "setting": "[1]; [8]", "value": 7.12}
    ]},
    {"smiles": "CC1(C)C(=O)C(C#N)=C[C@]2(C)C3=CC(=O)C=C[C@]3(C)CC[C@@H]12", "note": "(racemic) [(±)-TBE-5]", "values": [
      {"measurement": "pIC50", "setting": "[2]", "value": "~7.00"},
      {"measurement": "pIC50", "setting": "[1]; NO production induced by IFN-γ in mouse macrophages, order-of-magnitude level, read-out: IC50 level stated in text", "value": "~8.00"},
      {"measurement": "pIC50", "setting": "[1]; [8]", "value": 7.21}
    ]},
    {"smiles": "COC(=O)C1=C[C@]2(C)CC[C@H]3C(C)(C)C(=O)C(C#N)=C[C@]3(C)C2=CC1=O", "note": "(racemic) [(±)-TBE-6]", "values": [
      {"measurement": "pIC50", "setting": "[1]; [8]", "value": 7.04}
    ]},
    {"smiles": "CC1(C)C(=O)C(C#N)=C[C@]2(C)C3=CC(=O)C(C(=O)O)=C[C@]3(C)CC[C@@H]12", "note": "(racemic) [(±)-TBE-7]", "values": [
      {"measurement": "pIC50", "setting": "[1]; [8]", "value": 5.80}
    ]},
    {"smiles": "CC1(C)C(=O)C(C#N)=C[C@]2(C)C3=CC(=O)C(C(N)=O)=C[C@]3(C)CC[C@@H]12", "note": "(racemic) [(±)-TBE-8]", "values": [
      {"measurement": "pIC50", "setting": "[1]; [8]", "value": 7.21}
    ]},
    {"smiles": "CC1(C)C(=O)C(C#N)=C[C@]2(C)C3=CC(=O)C(C#N)=C[C@]3(C)CC[C@@H]12", "note": "(racemic) [(±)-TBE-9]", "values": [
      {"measurement": "potency, times more than TBE-5", "setting": "[5]", "value": "about 30 times"},
      {"measurement": "concentration range of dose-dependent inhibition of estrogen-stimulated growth", "setting": "[5]; MCF-7 (ER-positive)", "value": "10 to 1000", "unit": "nM"},
      {"measurement": "signs of toxicity", "setting": "[6]; 15 and 30 mg/kg oral, mouse", "value": "no signs of toxicity"},
      {"measurement": "oral activity in vivo", "setting": "[6]; 15 and 30 mg/kg, administered once, oral, mouse", "value": "orally active"},
      {"measurement": "activation of macrophages in mice", "setting": "[6]; CD-1 mice", "value": "blocks the activation of macrophages"},
      {"measurement": "in vivo potency compared with hydrocortisone", "setting": "[6]; mouse peritoneal inflammation", "value": "much more potent than hydrocortisone"},
      {"measurement": "times more potent than TBE-5", "setting": "[1]", "value": "~30", "unit": "times"},
      {"measurement": "pIC50", "setting": "[1]; [8]", "value": 8.68},
      {"measurement": "pIC50", "setting": "[1]; Mus musculus, iNOS assay, order-of-magnitude level, read-out: IC50 level stated in text", "value": "~9.00"},
      {"measurement": "potency in iNOS assay, statement in words", "setting": "[1]; iNOS assay", "value": "highest potency"},
      {"measurement": "times more potent than hydrocortisone", "setting": "[1]; iNOS assay", "value": "about 5 times"}
    ]},
    {"smiles": "CC1(C)C(=O)C(C#N)=C[C@]2(C)C3=CC(=O)CC[C@]3(C)CC[C@@H]12", "note": "(racemic) [(±)-TBE-10]", "values": [
      {"measurement": "times more potent than TBE-5", "setting": "[1]", "value": "about 3 times"},
      {"measurement": "pIC50", "setting": "[1]; [8]", "value": 7.72}
    ]},
    {"smiles": "CC1(C)C(=O)C(C#N)=C[C@@]2(C)C3=CC(=O)C=C[C@@]3(C)CC[C@H]12", "note": "[(+)-TBE-5]", "values": [
      {"measurement": "inhibitory activity against several cancer cell lines, enantiomers compared", "setting": "[7]", "value": "same inhibitory activity"},
      {"measurement": "pIC50", "setting": "[1]; [8]", "value": 7.19},
      {"measurement": "potency in iNOS assay, statement in words", "setting": "[1]; iNOS assay", "value": "same potency"}
    ]},
    {"smiles": "CC1(C)C(=O)C(C#N)=C[C@]2(C)C3=CC(=O)C=C[C@]3(C)CC[C@@H]12", "note": "[(−)-TBE-5]", "values": [
      {"measurement": "inhibitory activity against several cancer cell lines, enantiomers compared", "setting": "[7]", "value": "same inhibitory activity"},
      {"measurement": "pIC50", "setting": "[1]; [8]", "value": 7.24},
      {"measurement": "potency in iNOS assay, statement in words", "setting": "[1]; iNOS assay", "value": "same potency"}
    ]},
    {"smiles": "C[C@]12CCC(=O)C=C1CC[C@@H]1[C@@H]2[C@@H](O)C[C@@]2(C)[C@H]1CC[C@]2(O)C(=O)CO", "note": "[Hydrocortisone, reference compound]", "values": [
      {"measurement": "pIC50", "setting": "[1]; [8]", "value": 8.00}
    ]},
    {"smiles": "CC1(C)CC[C@]2(C(=O)O)CC[C@]3(C)C(=CC[C@@H]4[C@@]5(C)CC[C@H](O)C(C)(C)[C@@H]5CC[C@]43C)[C@@H]2C1", "note": "[Oleanolic acid, reference compound]", "values": [
      {"measurement": "pIC50", "setting": "[1]; [8]", "value": "< 4.40"}
    ]}
  ]
}
